From BigSolDB 2.1

N#Cc1ccncc1
solubility (mole fraction)
Conditions | 278.15 K | 283.15 K | 288.15 K | 293.15 K | 298.15 K | 303.15 K | 308.15 K | 313.15 K | 318.15 K
in acetone | 0.162 | 0.186 | 0.217 | 0.246 | 0.281 | 0.318 | 0.351 | 0.398 | 0.444
in ethanol | 0.0165 | 0.0242 | 0.035 | 0.0506 | 0.073 | 0.101 | 0.142 | 0.19 | 0.261
in methanol | 0.0384 | 0.0504 | 0.0656 | 0.0854 | 0.108 | 0.139 | 0.179 | 0.225 | 0.283
in n-propanol | 0.042 | 0.0556 | 0.0718 | 0.0926 | 0.118 | 0.147 | 0.184 | 0.237 | 0.303
in water | 0.00264 | 0.00327 | 0.004 | 0.00494 | 0.00603 | 0.00727 | 0.00875 | 0.0104 | 0.0123
